Measured values published in US4208414A, “Vinblastine in rheumatoid arthritis” (Eli Lilly and Company, priority 1979, dated 1980).
Where a name gives a salt, the structure may show the parent alone.

Columns and labels:
[1] = adjuvant-induced arthritis assay in rats; format: in vivo, female Wistar-Lewis rats; details: for Percent Inhibition Swelling, Injected Paw / Percent Inhibition Swelling, Uninjected Paw: day 16; for Percent Inhibition of Swelling, Injected Paw / Percent Inhibition of Swelling, Uninjected Paw: Table 2; for inhibiting induced arthritis, drug alone: at the dose levels used in combination; for Inhibition of Swelling, Mean Difference, Injected Paw / Inhibition of Swelling, Mean Difference, Uninjected Paw: Table 3
[2] = weight loss / deaths as a measure of toxicity in the adjuvant arthritis experiments
Experimental: Similar experiments were carried out with vinblastine-fenoprofen combinations and a vinblastine-indomethacin combination, again using adjuvant arthritis as a model. In this first determination, vinblastine was, as before, given on the 10th day, but fenoprofen, as the calcium salt, was given both from day 0 through day 15 and from day 10 through day 15. Controls utilizing each drug alone were employed as well as a saline control. […] In the vinblastine-indomethacin experiment, vinblastine was given on day 11 and indomethacin daily from days 11 to day 16.

twine granuloma assay = format: in vivo; details: female rats
Description: Vinblastine is also active in other assays designed to detect anti-arthritic activity as, for example, the twine granuloma assay in female rats.

[3] = dogs pretreated with vinblastine; cited from earlier work
[4] = pigeons or chickens, intertarsal joint; cited from earlier work
[5] = mice; cited from earlier work
[6] = intravenous; pleural cavity; cited from earlier work
[7] = antiarthritic activity relative to vinblastine, parenteral; format: in vivo; details: parenteral administration
[8] = Table 1 Section B, fenoprofen 5 mg/kg, days 10-15
[9] = Table 1 Section A, 3 mg/kg, given on 10th day
[10] = Table 1 Section A, 6 mg/kg, given on 10th day
[11] = Table 1 Section A, 9 mg/kg, given on 10th day
[12] = Table 1 Section A, 9 mg/kg, given on 10th day, * decrease from previous value
[13] = Table 1 Section A, 12 mg/kg, given on 10th day, * decrease from previous value
[14] = Table 1 Section B, vinblastine sulfate 6 mg/kg, 10th day
[15] = vinblastine sulfate 3 mg/kg, day 10, p = 1
[16] = Table 2, vinblastine sulfate 3 mg/kg day 10

In the case of `CC(C(=O)O)c1cccc(Oc2ccccc2)c1` (racemic) [Fenoprofen (Ca salt), dl-α-methyl-3-phenoxybenzeneacetic acid], the “Average Increase in Swelling, Injected Paw, Day 0-10” value [1, 8] is reported as 0.502, the “Average Increase in Swelling, Injected Paw, Day 10-16” value [1, 8] is reported as 0.692 and the “Average Increase in Swelling, Uninjected Paw, Day 0-10” value [1, 8] is reported as 0.188. The “Average Increase in Swelling, Uninjected Paw, Day 10-16” value [1, 8] was 0.274, the “Percent Inhibition Swelling, Injected Paw” value ([1]; Table 1 Section B, fenoprofen 5 mg/kg, days 10-15, p = 0.074) was 41.11% and the “Percent Inhibition Swelling, Uninjected Paw” value ([1]; Table 1 Section B, fenoprofen 5 mg/kg, days 10-15, p = 0.282) was 51.93%. For the same compound, the “Percent Inhibition of Swelling, Injected Paw” value ([1]; fenoprofen Ca salt 2.5 mg/kg days 0-15, p = 0.196) was 34.9%, the “Percent Inhibition of Swelling, Uninjected Paw” value ([1]; fenoprofen Ca salt 2.5 mg/kg days 0-15, p = 0.645) was 17.4% and the “Percent Inhibition of Swelling, Uninjected Paw” value ([1]; fenoprofen Ca salt 5 mg/kg days 10-15, p = 0.385) was 27.2%. The “Percent Inhibition of Swelling, Injected Paw” value ([1]; fenoprofen Ca salt 5 mg/kg days 10-15, p = 0.58) was 40.3%, the “inhibiting induced arthritis, drug alone” value [1] was “neither drug alone is effective” and the death ([2]; Table 2 footnote, 2.5 mg/kg days 0-15, at day 16) was “one death”.

In the case of `COc1ccc2c(c1)c(CC(=O)O)c(C)n2C(=O)c1ccc(Cl)cc1` [Indomethacin], the “Inhibition of Swelling, Mean Difference, Injected Paw” value ([1]; indomethacin 0.25 mg/kg, p = 0.11) is reported as 0.59, the “Inhibition of Swelling, Mean Difference, Uninjected Paw” value ([1]; indomethacin 0.25 mg/kg, p = 1) is reported as 0.56 and the “inhibiting induced arthritis, drug alone” value [1] is reported as “neither drug alone is effective”.

In the case of `CC[C@]1(O)C[C@@H]2CN(CCc3c([nH]c4ccccc34)[C@@](C(=O)OC)(c3cc4c(cc3OC)N(C)[C@H]3[C@@](O)(C(=O)OC)[C@H](OC(C)=O)[C@]5(CC)C=CCN6CC[C@]43[C@@H]65)C2)C1` [Vinblastine sulfate], the “Average Increase in Swelling, Injected Paw, Day 0-10” value [1, 9] is reported as 0.554, the “Average Increase in Swelling, Injected Paw, Day 10-16” value [1, 9] is reported as 0.722 and the “Average Increase in Swelling, Uninjected Paw, Day 0-10” value [1, 9] is reported as 0.024. The “Average Increase in Swelling, Uninjected Paw, Day 10-16” value [1, 9] was 0.574, the “Percent Inhibition Swelling, Injected Paw” value ([1]; Table 1 Section A, 3 mg/kg, given on 10th day, p = 0.097) was 38.55% and the “Percent Inhibition Swelling, Uninjected Paw” value ([1]; Table 1 Section A, 3 mg/kg, given on 10th day, p = 0.987) was 0%. The “Average Increase in Swelling, Injected Paw, Day 0-10” value [1, 10] was 0.498, the “Average Increase in Swelling, Injected Paw, Day 10-16” value [1, 10] was 0.188 and the “Average Increase in Swelling, Uninjected Paw, Day 0-10” value [1, 10] was 0.038. The “Percent Inhibition Swelling, Injected Paw” value ([1]; Table 1 Section A, 6 mg/kg, given on 10th day, p = 0.001) was 84.00%, the “Percent Inhibition Swelling, Uninjected Paw” value ([1]; Table 1 Section A, 6 mg/kg, given on 10th day, p = 0.077) was 74.39% and the “Average Increase in Swelling, Injected Paw, Day 0-10” value [1, 11] was 0.492. For the same compound, the “Average Increase in Swelling, Uninjected Paw, Day 0-10” value [1, 11] was 0.230, the “Average Increase in Swelling, Injected Paw, Day 10-16” value [1, 12] was -0.096 and the “Average Increase in Swelling, Uninjected Paw, Day 10-16” value [1, 12] was -0.232. The “Percent Inhibition Swelling, Injected Paw” value ([1]; Table 1 Section A, 9 mg/kg, given on 10th day, p = 0.000) was 100.0%, the “Percent Inhibition Swelling, Uninjected Paw” value ([1]; Table 1 Section A, 9 mg/kg, given on 10th day, p = 0.004) was 100.00% and the “Average Increase in Swelling, Injected Paw, Day 0-10” value ([1]; Table 1 Section A, 12 mg/kg, given on 10th day) was 0.698. For the same compound, the “Average Increase in Swelling, Injected Paw, Day 10-16” value [1, 13] was -0.108, the “Average Increase in Swelling, Uninjected Paw, Day 0-10” value [1, 13] was -0.102 and the “Average Increase in Swelling, Uninjected Paw, Day 10-16” value [1, 13] was -0.048. For the same compound, the “Percent Inhibition Swelling, Injected Paw” value ([1]; Table 1 Section A, 12 mg/kg, given on 10th day, p = 0.000) was 100.00%, the “Percent Inhibition Swelling, Uninjected Paw” value ([1]; Table 1 Section A, 12 mg/kg, given on 10th day, p = 0.027) was 100.00% and the “Average Increase in Swelling, Injected Paw, Day 0-10” value [1, 14] was 0.498. The “Average Increase in Swelling, Injected Paw, Day 10-16” value [1, 14] was 0.188, the “Average Increase in Swelling, Uninjected Paw, Day 0-10” value [1, 14] was 0.030 and the “Percent Inhibition Swelling, Injected Paw” value ([1]; Table 1 Section B, vinblastine sulfate 6 mg/kg, 10th day, p = 0.001) was 84.00%. For the same compound, the “Percent Inhibition Swelling, Uninjected Paw” value ([1]; Table 1 Section B, vinblastine sulfate 6 mg/kg, 10th day, p = 0.077) was 74.39%, the “Percent Inhibition of Swelling, Injected Paw” value ([1]; vinblastine sulfate 3 mg/kg day 10, p = 0.724) was 8.22% and the “Percent Inhibition of Swelling, Uninjected Paw” value ([1]; vinblastine sulfate 3 mg/kg day 10, p = 0.764) was 12.0%. For the same compound, the “Inhibition of Swelling, Mean Difference, Injected Paw” value [1, 15] was 1.00, the “Inhibition of Swelling, Mean Difference, Uninjected Paw” value [1, 15] was 0.41 and the “inhibiting induced arthritis, drug alone” value [1] was “neither drug alone is effective”. The “Wt. Loss, Day 0-16” value [2, 16] was -22.3 grams, the “Wt. Loss, Day 10-16” value [2, 16] was -22.6 grams and the “Wt. Loss, Day 10-17” value ([2]; Table 3, vinblastine sulfate 3 mg/kg, day 10) was 28.9 grams.

In the case of `CC[C@]1(O)C[C@@H]2CN(CCc3c([nH]c4ccccc34)[C@@](C(=O)OC)(c3cc4c(cc3OC)N(C)[C@H]3[C@@](O)(C(=O)OC)[C@H](OC(C)=O)[C@]5(CC)C=CCN6CC[C@]43[C@@H]65)C2)C1` [Vinblastine], the “activity in the adjuvant arthritis assay” value ([1]; summary statement) is listed as “active in the adjuvant arthritis assay”, the “activity in twine granuloma assay” value (twine granuloma assay) is listed as “active” and the inflammatory response [3] is listed as “almost completely abolished”. For the same compound, the leukocyte depletion [3] was “profound leukocyte depletion”, the significant phagocyte accumulation [3] was “prevented” and the “inhibition of the arthritic response” value [4] was “no inhibition of the arthritic response”. For the same compound, the “depression of paw swelling” value [5] was “significant depression of paw swelling” and the effect on inflammation [6] was “may have a suppressive effect”.

In the case of `CC[C@]1(O)C[C@H]2CN(CCc3c([nH]c4ccccc34)[C@@](C(=O)OC)(c3cc4c(cc3OC)N(C=O)[C@H]3[C@@](O)(C(=O)OC)[C@H](OC(C)=O)[C@]5(CC)C=CCN6CC[C@]43[C@@H]65)C2)C1` [vincristine], the “antiarthritic activity relative to VLB” value [7] is given as “about 10 times more active”, the “inhibition of the arthritic response” value [4] is given as “no inhibition of the arthritic response” and the “depression of paw swelling” value [5] is given as “significant depression of paw swelling”.
